Laboratory results as given in US20230136297A1, “Methods Of Treating Fabry Disease In Patients Having A Mutation In The GLA Gene” (Amicus Therapeutics, Inc., priority 2020, published 2023).
Numbering of substitutions follows the chain as printed.

Key:
Assay in all cases: α-Gal A activity in lysates of transfected HEK-293 cells ± migalastat (HEK assay)
Format in all cases: cell-based
[1] = target: T1, α-Gal A mutant form G360A (Homo sapiens, UniProt P06280, G360A)
T1 construct: expressed in transfected cells; host or cells: HEK-293
T1 sequence (P06280 32-429 G360A): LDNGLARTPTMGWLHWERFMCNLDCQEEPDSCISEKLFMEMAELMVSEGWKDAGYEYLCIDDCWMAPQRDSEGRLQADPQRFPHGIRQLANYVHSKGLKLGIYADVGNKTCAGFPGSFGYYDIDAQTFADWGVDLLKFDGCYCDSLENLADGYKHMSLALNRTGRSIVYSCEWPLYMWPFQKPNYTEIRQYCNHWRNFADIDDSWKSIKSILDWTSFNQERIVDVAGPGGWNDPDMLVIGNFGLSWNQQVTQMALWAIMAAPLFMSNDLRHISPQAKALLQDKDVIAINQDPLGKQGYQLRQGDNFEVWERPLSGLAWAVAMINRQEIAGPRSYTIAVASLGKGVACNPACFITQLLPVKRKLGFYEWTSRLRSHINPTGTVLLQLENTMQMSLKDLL
Description: (§1) Such mutations or variants are also referred to herein as “HEK assay amenable” mutations or variants.
(§2) The α-Gal A activity is expressed as the nmoles of free 4-MU released per milligram of protein per hour (nmol/mg/hr).

[2] = target: T2, α-Gal A mutant form L394P (Homo sapiens, UniProt P06280, L394P)
T2 construct: expressed in transfected cells; host or cells: HEK-293
T2 sequence (P06280 32-429 L394P): T1 sequence (P06280 32-429 G360A) with A329G, L363P
Description: as §1, §2

[3] = target: T3, α-Gal A mutant form R196T (Homo sapiens, UniProt P06280, R196T)
T3 construct: expressed in transfected cells; host or cells: HEK-293
T3 sequence (P06280 32-429 R196T): T1 sequence (P06280 32-429 G360A) with R165T, A329G
Description: as §1, §2

[4] = target: T4, α-Gal A mutant form L180V (Homo sapiens, UniProt P06280, L180V)
T4 construct: expressed in transfected cells; host or cells: HEK-293
T4 sequence (P06280 32-429 L180V): T1 sequence (P06280 32-429 G360A) with L149V, A329G
Description: as §1, §2

[5] = target: T5, α-Gal A mutant form G360R (Homo sapiens, UniProt P06280, G360R)
T5 construct: expressed in transfected cells; host or cells: HEK-293
T5 sequence (P06280 32-429 G360R): T1 sequence (P06280 32-429 G360A) with A329R
Description: as §1, §2

[6] = 10 μM migalastat minus baseline
[7] = HEK-293 lysates, 10 μM migalastat 5 days, mean ± SEM

Absolute increase (% WT) [1, 6]: 7.5 % WT | Relative increase ([1]; 10 μM migalastat ÷ baseline): 1.28 | 10 μM migalastat α-Gal A activity [1, 7]: 13443 ± 1048 nmol/mg/h | 10 μM migalastat α-Gal A activity (% WT) [1, 7]: 31.3 ± 2.6 % WT | Absolute increase (% WT) [2, 6]: 7.2 % WT | Relative increase ([2]; 10 μM migalastat ÷ baseline): 1.52 | 10 μM migalastat α-Gal A activity [2, 7]: 7749 ± 582 nmol/mg/h | 10 μM migalastat α-Gal A activity (% WT) [2, 7]: 22.3 ± 2.4 % WT | Absolute increase (% WT) [3, 6]: 22.4 % WT | Relative increase ([3]; 10 μM migalastat ÷ baseline): 1.48 | 10 μM migalastat α-Gal A activity [3, 7]: 26217 ± 1611 nmol/mg/h | 10 μM migalastat α-Gal A activity (% WT) [3, 7]: 69.5 ± 2.6 % WT | Absolute increase (% WT) [4, 6]: 36.2 % WT | Relative increase ([4]; 10 μM migalastat ÷ baseline): 1.97 | 10 μM migalastat α-Gal A activity [4, 7]: 25437 ± 1279 nmol/mg/h | 10 μM migalastat α-Gal A activity (% WT) [4, 7]: 73.4 ± 2.9 % WT | Absolute increase (% WT) [5, 6]: 3 % WT | Relative increase ([5]; 10 μM migalastat ÷ baseline): 3.65 | 10 μM migalastat α-Gal A activity [5, 7]: 1418 ± 93 nmol/mg/h | 10 μM migalastat α-Gal A activity (% WT) [5, 7]: 4.0 ± 0.3 % WT
Compound: OC[C@H]1NC[C@H](O)[C@@H](O)[C@H]1O [migalastat, (2R,3S,4R,5S)-2-(hydroxymethyl) piperdine-3,4,5-triol]
